Read-outs that look alike come from different tables or passages of the source.
Legend:
[1] = target: 6×HIS-tankyrase1 (1091-1325) (Homo sapiens (Human), UniProt O95271); experiment: Tankyrase 1 biochemical assay (AlphaLisa, PARsylation); details: 400 nM NAD, 60 minutes at RT; read-out: TNKS1 IC50
[2] = target: 6×HIS-tankyrase 2 (946-1162) (Homo sapiens (Human), UniProt Q9H2K2); experiment: Tankyrase 2 biochemical assay (AlphaLisa, PARsylation); details: 250 nM NAD; read-out: TNKS2 IC50
[3] = test system: Axin2 accumulation in SW480 cells; experiment: Axin2 384 immunofluorescence assay; format: cell-based; details: Homo sapiens, read-out: Axin2 384 IF EC50
PARP2 = PARP2 (Homo sapiens (Human), UniProt Q9UGN5); experiment: PARP2 biochemical assay (BPS kit)
[4] = test system: total β-catenin in SW480 colorectal cells; experiment: Total β-catenin MSD 96-well plate assay for SW480 cells; details: Homo sapiens, SW480, read-out: SW480-Total beta-catenin (TBC) IC50 IP
PARP1 = PARP1 (Homo sapiens (Human), UniProt P09874); experiment: PARP1 biochemical assay (Trevigen kit)
Text: PARP1 biochemical assay was purchased as a kit from Trevigen (cat.#4676-096-K) and used per manufacturers recommendations.

Sequence of PARP2 (Q9UGN5 whole entry): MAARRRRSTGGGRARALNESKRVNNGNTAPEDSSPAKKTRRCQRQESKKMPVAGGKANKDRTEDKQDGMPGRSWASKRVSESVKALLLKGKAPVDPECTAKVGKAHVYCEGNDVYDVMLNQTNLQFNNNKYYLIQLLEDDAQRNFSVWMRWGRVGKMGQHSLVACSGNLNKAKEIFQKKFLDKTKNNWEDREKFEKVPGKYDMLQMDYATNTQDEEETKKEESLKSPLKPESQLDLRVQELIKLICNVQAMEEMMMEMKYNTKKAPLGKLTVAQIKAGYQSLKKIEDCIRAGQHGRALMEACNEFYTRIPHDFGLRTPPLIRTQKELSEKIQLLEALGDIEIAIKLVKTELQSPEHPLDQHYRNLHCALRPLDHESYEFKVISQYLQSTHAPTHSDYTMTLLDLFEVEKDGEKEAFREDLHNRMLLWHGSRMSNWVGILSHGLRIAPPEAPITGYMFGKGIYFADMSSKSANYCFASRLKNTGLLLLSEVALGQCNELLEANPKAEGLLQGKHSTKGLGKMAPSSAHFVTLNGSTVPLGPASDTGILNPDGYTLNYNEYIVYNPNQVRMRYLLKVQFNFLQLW
Sequence of 6×HIS-tankyrase1 (1091-1325) (O95271 1091-1325): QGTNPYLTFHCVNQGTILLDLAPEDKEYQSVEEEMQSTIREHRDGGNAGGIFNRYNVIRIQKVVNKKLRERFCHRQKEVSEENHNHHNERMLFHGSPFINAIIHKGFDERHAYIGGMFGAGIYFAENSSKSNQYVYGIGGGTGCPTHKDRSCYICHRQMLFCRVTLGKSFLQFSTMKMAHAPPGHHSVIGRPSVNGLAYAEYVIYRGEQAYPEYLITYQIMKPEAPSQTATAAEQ
Sequence of PARP1 (P09874 whole entry): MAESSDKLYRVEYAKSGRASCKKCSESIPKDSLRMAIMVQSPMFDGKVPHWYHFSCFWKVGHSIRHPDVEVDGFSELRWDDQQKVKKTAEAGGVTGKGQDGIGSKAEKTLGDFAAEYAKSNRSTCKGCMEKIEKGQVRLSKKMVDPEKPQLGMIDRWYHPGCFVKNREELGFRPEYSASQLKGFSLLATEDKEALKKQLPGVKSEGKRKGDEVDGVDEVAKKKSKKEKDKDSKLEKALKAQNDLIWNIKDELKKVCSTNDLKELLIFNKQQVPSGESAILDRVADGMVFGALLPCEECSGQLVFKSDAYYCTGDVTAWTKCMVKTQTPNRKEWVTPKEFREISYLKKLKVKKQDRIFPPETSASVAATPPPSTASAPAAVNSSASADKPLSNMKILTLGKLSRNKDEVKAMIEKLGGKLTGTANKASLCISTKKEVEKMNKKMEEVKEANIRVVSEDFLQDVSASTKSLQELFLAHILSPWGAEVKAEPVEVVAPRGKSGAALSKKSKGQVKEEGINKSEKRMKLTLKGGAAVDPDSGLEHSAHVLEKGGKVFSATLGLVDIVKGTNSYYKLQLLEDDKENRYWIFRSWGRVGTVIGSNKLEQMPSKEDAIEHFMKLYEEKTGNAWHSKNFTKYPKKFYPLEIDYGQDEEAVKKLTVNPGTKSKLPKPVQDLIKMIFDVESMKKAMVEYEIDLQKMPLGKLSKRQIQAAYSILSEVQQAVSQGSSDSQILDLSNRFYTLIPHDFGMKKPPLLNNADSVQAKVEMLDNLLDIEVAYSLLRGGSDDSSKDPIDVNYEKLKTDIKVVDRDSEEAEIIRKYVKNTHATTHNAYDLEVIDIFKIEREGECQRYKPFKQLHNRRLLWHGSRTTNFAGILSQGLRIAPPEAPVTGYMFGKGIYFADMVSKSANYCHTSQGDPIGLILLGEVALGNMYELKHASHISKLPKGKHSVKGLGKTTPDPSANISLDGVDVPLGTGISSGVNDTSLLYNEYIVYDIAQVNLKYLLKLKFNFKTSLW
Sequence of 6×HIS-tankyrase 2 (946-1162) (Q9H2K2 946-1162): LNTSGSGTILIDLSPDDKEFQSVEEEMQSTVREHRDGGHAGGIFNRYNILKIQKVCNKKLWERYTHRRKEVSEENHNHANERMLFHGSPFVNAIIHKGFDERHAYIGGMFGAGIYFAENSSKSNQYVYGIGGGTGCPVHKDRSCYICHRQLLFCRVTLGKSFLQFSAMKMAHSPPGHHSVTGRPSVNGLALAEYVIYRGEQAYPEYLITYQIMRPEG

Compound	IC50 [1]	IC50 [2]	EC50 ([3]; SW480 cells, 24 hours)	IC50 (PARP2)	IC50 [4]	EC50 ([3]; SW480, 24 h)	IC50 (PARP1)
O=c1[nH]c(CCNC(=O)[C@H]2CC[C@H](c3nnc(-c4ccccc4)o3)CC2)nc2ccccc12 [Example 1, trans-N-(2-(4-oxo-3,4-dihydro-2-quinazolinyl)ethyl)-4-(5-phenyl-1,3,4-oxadiazol-2-yl)cyclohexanecarboxamide]	66.6 nM	22.5 nM	1390 nM	3220 nM	142 nM	–	–
O=C(CCCc1nc2ccccc2c(=O)[nH]1)N[C@H]1CC[C@H](c2nnc(-c3ccc(F)c(Cl)c3)o2)CC1 [Example 35, N-(trans-4-(5-(3-chloro-4-fluorophenyl)-1,3,4-oxadiazol-2-yl)cyclohexyl)-4-(4-oxo-3,4-dihydro-2-quinazolinyl)butanamide 2,2,2-trifluoroacetate]	0.277 nM	0.196 nM	10.8 nM	923 nM	19.7 nM	–	–
O=C(CCSc1nc2ccccc2c(=O)[nH]1)N[C@H]1C[C@@H](c2nnc(-c3ccccc3)o2)C1 [Example 39, 3-((4-oxo-3,4-dihydroquinazolin-2-yl)thio)-N-((1s,3s)-3-(5-phenyl-1,3,4-oxadiazol-2-yl)cyclobutyl)propanamide]	0.405 nM	0.389 nM	–	1900 nM	–	–	–
O=C(CCSc1nc2ccccc2c(=O)[nH]1)N[C@H]1C[C@H](c2nnc(-c3ccccc3)o2)C1 [Example 40, 3-((4-oxo-3,4-dihydroquinazolin-2-yl)thio)-N-((1r,3r)-3-(5-phenyl-1,3,4-oxadiazol-2-yl)cyclobutyl)propanamide]	0.0891 nM	–	–	3970 nM	–	–	–
Cn1c(=O)n(C2CCN(C(=O)CCCc3nc4ccccc4c(=O)[nH]3)CC2)c2ccc(Cl)cc21 [Example 45, 2-(4-(4-(5-chloro-3-methyl-2-oxo-2,3-dihydro-1H-benzimidazol-1-yl)-1-piperidinyl)-4-oxobutyl)-4(3H)-quinazolinone]	73.7 nM	52.5 nM	4630 nM	1020 nM	2340 nM	–	–
O=C(CCCc1nc2ccccc2c(=O)[nH]1)N1CCC(n2cc(-c3ccccc3)[nH]c2=O)CC1 [Example 49, 2-(4-oxo-4-(4-(2-oxo-4-phenyl-2,3-dihydro-1H-imidazol-1-yl)-1-piperidinyl)butyl)-4(3H)-quinazolinone trifluoroacetic acid]	118 nM	–	–	–	530 nM	5330 nM	–
O=C(CCc1nc2ccccc2c(=O)[nH]1)N[C@H]1CC[C@H](n2c(=O)[nH]c3ccccc32)CC1 [Example 84, N-(trans-4-(2-oxo-2,3-dihydro-1H-benzo[d]imidazol-1-yl)cyclohexyl)-3-(4-oxo-3,4-dihydroquinazolin-2-yl)propanamide]	1.44 nM	0.671 nM	1780 nM	1030 nM	433 nM	–	–
O=C(CCc1nc2ccccc2c(=O)[nH]1)N[C@H]1CC[C@H](n2c(=O)[nH]c3ccc(Cl)cc32)CC1 [Example 86, N-((1r,4r)-4-(6-chloro-2-oxo-2,3-dihydro-1H-benzo[d]imidazol-1-yl)cyclohexyl)-3-(4-oxo-3,4-dihydroquinazolin-2-yl)propanamide]	1.01 nM	0.347 nM	207 nM	279 nM	32.6 nM	–	–
O=C(CCSc1nc2ccccc2c(=O)[nH]1)N[C@H]1CC[C@H](n2c(=O)[nH]c3cc(Cl)ccc32)CC1 [Example 90, N-((1r,4r)-4-(5-chloro-2-oxo-2,3-dihydro-1H-benzo[d]imidazol-1-yl)cyclohexyl)-3-((4-oxo-3,4-dihydroquinazolin-2-yl)thio)propanamide]	0.127 nM	0.796 nM	3.42 nM	720 nM	7.84 nM	–	–
O=C(CCc1nc2ccc(F)cc2c(=O)[nH]1)N[C@H]1CC[C@H](c2nnc(-c3ccccc3)o2)CC1 [Example 101, 3-(6-fluoro-4-oxo-3,4-dihydroquinazolin-2-yl)-N-((1r,4r)-4-(5-phenyl-1,3,4-oxadiazol-2-yl)cyclohexyl)propanamide]	–	15.2 nM	783 nM	421 nM	252 nM	–	936 nM
O=C(CCSc1nc2ccccc2c(=O)[nH]1)N[C@H]1CC[C@H](c2nnc(-c3ccc(F)cc3)o2)CC1 [Example 117, N-((1r,4r)-4-(5-(4-fluorophenyl)-1,3,4-oxadiazol-2-yl)cyclohexyl)-3-((4-oxo-3,4-dihydroquinazolin-2-yl)thio)propanamide]	0.269 nM	3.98 nM	2.78 nM	–	1.23 nM	–	–
O=C(CCSc1nc2ccccc2c(=O)[nH]1)N[C@H]1CC[C@H](c2nnc(-c3cccc(F)c3)o2)CC1 [Example 119, N-((1r,4r)-4-(5-(3-fluorophenyl)-1,3,4-oxadiazol-2-yl)cyclohexyl)-3-((4-oxo-3,4-dihydroquinazolin-2-yl)thio)propanamide]	0.194 nM	3.34 nM	5.72 nM	–	3 nM	–	–
O=C(CCSc1nc2ccccc2c(=O)[nH]1)N[C@H]1CC[C@H](c2nnc(-c3ccc(Cl)cc3)o2)CC1 [Example 125, N-((1r,4r)-4-(5-(4-chlorophenyl)-1,3,4-oxadiazol-2-yl)cyclohexyl)-3-((4-oxo-3,4-dihydroquinazolin-2-yl)thio)propanamide]	1.52 nM	0.179 nM	1.68 nM	–	1.93 nM	–	–
O=C(CCc1nc2ccccc2c(=O)[nH]1)N[C@H]1CC[C@H](c2nnc(-c3ccc(F)cc3)o2)CC1 [Example 127, N-((1r,4r)-4-(5-(4-fluorophenyl)-1,3,4-oxadiazol-2-yl)cyclohexyl)-3-(4-oxo-3,4-dihydroquinazolin-2-yl)propanamide]	–	12.7 nM	307 nM	2310 nM	157 nM	–	1970 nM
O=C(CCc1nc2ccccc2c(=O)[nH]1)N[C@H]1CC[C@H](c2nnc(-c3ccccc3Cl)o2)CC1 [Example 128, N-((1r,4r)-4-(5-(2-chlorophenyl)-1,3,4-oxadiazol-2-yl)cyclohexyl)-3-(4-oxo-3,4-dihydroquinazolin-2-yl)propanamide]	–	81.3 nM	1750 nM	276 nM	592 nM	–	3890 nM
O=C(CCc1nc2ccccc2c(=O)[nH]1)N[C@H]1CC[C@H](c2nnc(-c3cccc(F)c3)o2)CC1 [Example 129, N-((1r,4r)-4-(5-(3-fluorophenyl)-1,3,4-oxadiazol-2-yl)cyclohexyl)-3-(4-oxo-3,4-dihydroquinazolin-2-yl)propanamide]	–	12.8 nM	435 nM	1960 nM	124 nM	–	1090 nM
O=C(CCc1nc2ccccc2c(=O)[nH]1)N[C@H]1CC[C@H](c2nnc(-c3cccc(Cl)c3)o2)CC1 [Example 130, N-((1r,4r)-4-(5-(3-chlorophenyl)-1,3,4-oxadiazol-2-yl)cyclohexyl)-3-(4-oxo-3,4-dihydroquinazolin-2-yl)propanamide]	–	7.92 nM	240 nM	944 nM	110 nM	–	998 nM
O=C(CCc1nc2ccccc2c(=O)[nH]1)N[C@H]1CC[C@H](c2nnc(-c3ccccn3)o2)CC1 [Example 131, 3-(4-oxo-3,4-dihydroquinazolin-2-yl)-N-((1r,4r)-4-(5-(pyridin-2-yl)-1,3,4-oxadiazol-2-yl)cyclohexyl)propanamide]	–	187 nM	12100 nM	–	1770 nM	–	5650 nM
O=C(CCc1nc2ccccc2c(=O)[nH]1)N[C@H]1CC[C@H](c2nnc(-c3cccnc3)o2)CC1 [Example 136, 3-(4-oxo-3,4-dihydroquinazolin-2-yl)-N-((1r,4r)-4-(5-(pyridin-3-yl)-1,3,4-oxadiazol-2-yl)cyclohexyl)propanamide]	–	32.7 nM	1190 nM	1060 nM	960 nM	–	10800 nM
O=C(CCc1nc2ccccc2c(=O)[nH]1)N[C@H]1CC[C@H](c2nnc(Cc3ccccc3)o2)CC1 [Example 139, N-((1r,4r)-4-(5-benzyl-1,3,4-oxadiazol-2-yl)cyclohexyl)-3-(4-oxo-3,4-dihydroquinazolin-2-yl)propanamide]	–	624 nM	> 25000 nM	1130 nM	–	–	8220 nM
CC(C)(c1ccccc1)c1nnc([C@H]2CC[C@H](NC(=O)CCc3nc4ccccc4c(=O)[nH]3)CC2)o1 [Example 140, 3-(4-oxo-3,4-dihydroquinazolin-2-yl)-N-((1r,4r)-4-(5-(2-phenylpropan-2-yl)-1,3,4-oxadiazol-2-yl)cyclohexyl)propanamide]	1210 nM	–	–	1290 nM	–	–	7450 nM
O=C(CCc1nc2ccccc2c(=O)[nH]1)N[C@H]1CC[C@H](c2nnc(-c3cnccn3)o2)CC1 [Example 142, 3-(4-oxo-3,4-dihydroquinazolin-2-yl)-N-((1r,4r)-4-(5-(pyrazin-2-yl)-1,3,4-oxadiazol-2-yl)cyclohexyl)propanamide]	–	203 nM	6490 nM	1700 nM	–	–	5470 nM
O=C(CC[S+]([O-])c1nc2ccccc2c(=O)[nH]1)N[C@H]1CC[C@H](c2nnc(-c3ccccc3)o2)CC1 (stereo partly drawn) [Example 143, 3-((4-oxo-3,4-dihydroquinazolin-2-yl)sulfinyl)-N-((1r,4r)-4-(5-phenyl-1,3,4-oxadiazol-2-yl)cyclohexyl)propanamide]	17.9 nM	52.3 nM	970 nM	–	929 nM	–	–

Reference: patent US9505749B2, “Quinazolinone compounds and derivatives thereof” (AMGEN INC., priority 2012, dated 2016)
